Results taken from US9682060B2, “Small molecules that induce intrinsic pathway apoptosis” (The Board of Trustees of the University of Illinois, priority 2015, dated 2017).
“Also recorded” adds a separate entry of the source. Non-standard residues stand in square brackets, D forms with d. Residues, ends and D or L forms follow the SMILES beside them. *: point of attachment. Nle = CCCC[C@H](N)C(=O)O; Cbz = O=C(OCc1ccccc1)*; CH2Cl = ClC*

What was measured:
Calpain/Cathepsin = conditions: cited from earlier work
U-937 cells = test: Mitochondrial permeability transition pore (MPTP) calcein-cobalt assay; type: cell-based, Human; conditions: calcein-cobalt quenching
Procedure: Mitochondrial Permeability Transition Pore (MPTP) Calcein-Cobalt Assay.
U-937 cells (1×10^6 cells/mL in HBSS) were loaded with calcein-AM (20 nM final concentration) for 45 minutes at 37° C. The cells were washed with HBSS and resuspended in RPMI and plated into a 24-well plate (1×10^6 cells in 1 mL). The cells were treated with Raptinal (10 μM) for 15, 30, 45, 60 and 90 minutes. Cobalt(II) chloride was added (10 μL of 80 mM stock in HBSS) to the cells 10 minutes prior to the end of the time points. The cells were pelleted and resuspended in HBSS (0.5 mL) and calcein fluorescence was measured by flow cytometry. As a positive control for MPTP, ionomycin and calcium were added to calcein-labeled cells in HBSS 10 minutes prior to analysis by flow cytometry.

Granzyme B = Granzyme B (Homo sapiens, UniProt P10144); conditions: cited from earlier work
Sequence of Granzyme B (P10144 21-247, species assumed): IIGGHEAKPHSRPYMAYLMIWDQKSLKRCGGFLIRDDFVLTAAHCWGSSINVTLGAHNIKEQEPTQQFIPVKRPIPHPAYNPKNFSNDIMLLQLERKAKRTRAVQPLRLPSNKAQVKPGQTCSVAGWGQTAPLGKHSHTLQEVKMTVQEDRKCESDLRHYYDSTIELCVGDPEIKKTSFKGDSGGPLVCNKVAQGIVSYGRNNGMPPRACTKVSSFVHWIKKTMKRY

[1] = system: isolated mitochondria (U-937 cells); test: In vitro cytochrome c release from isolated mitochondria; type: biochemical, Human; conditions: respiring and non-respiring conditions, 30 min, Western blot
Procedure: In Vitro Cytochrome c Release from Isolated Mitochondria.
U-937 cells (120×10^6) were washed twice in PBS and resuspended in 800 μL ice-cold lysis buffer (50 mM HEPES, 5 mM DTT, 5 mM PMSF, 25 mM MgCl2, protease cocktail inhibitor, pH 7.5) and the cells were passed through a 26 gauge needle 26 times using a 1 mL syringe until >95% cells were lysed as determined by trypan blue. Isolation buffer (0.25 M sucrose in lysis buffer pH 7.5) was added to the lysed cells (2.4 mL) and mixed by inversion. Debris was removed by centrifugation (500×g. 10 min at 4° C.) and the mitochondria in the supernatant were pelleted by centrifugation (10000×g, 5 min at 4° C.). The mitochondrial pellet was resuspended in washing buffer (2 mL of 50 mM HEPES, 250 mM KCl, 25 mM EDTA, pH 7.5) and incubated on ice for 2 min and centrifuged (12500×g, 5 min). The mitochondrial pellet was resuspended in either non-respiration (300 μL of 50 mM HEPES, 5 mM DTT, 5 mM PMSF, 25 mM MgCl2, protease inhibitor, 250 mM KCl, 25 mM EDTA, pH 7.5) or respiration buffer (300 μL of 50 mM HEPES, […], 5 mM ATP, 0.4 mM ADP, 25 mM sodium succinate, 10 mM potassium phosphate dibasic, pH 7.5). […]

CCCC[C@@H](C=O)NC(=O)[C@H](CC(C)C)NC(=O)[C@H](CC(C)C)NC(C)=O [Calpain/Cathepsin Inhibitor I] (Ac-Leu-Leu-[Nle]-aldehyde)
Ki (Calpain/Cathepsin): 120 to 230 nM

C[C@H](CCC(=O)O)C[C@H](C)C[C@H](C)C(=O)/C=C(\O)[C@H](C)C[C@H](C)C/C=C/[C@@H](C)[C@@H](O)[C@@H](C)[C@@H](O)C[C@@H]1CC[C@@](C)([C@H]2CC[C@@](C)([C@@H](C)O)O2)O1 [lonomycin, ionomycin, reference compound]
mitochondrial permeability transition pore (MPTP) formation (U-937 cells): able to induce MPTP

CC(NC(=O)OCc1ccccc1)C(=O)NC(C)C(=O)NC(CC(=O)O)C(=O)CCl (stereo not drawn) [Granzyme B Inhibitor I] (Cbz-Ala-Ala-Asp-CH2Cl; configuration not given here)
Ki (Granzyme B): 300 nM

B1: Bid: known pro-apoptotic protein; full-length recombinant Bid from R&D Systems (protein, UniProt P55957 1-195, looked up)
chain: MDCEVNNGSSLRDECITNLLVFGFLQSCSDNSFRRELDALGHELPVLAPQWEGYDELQTDGNRSSHSRLGRIEADSESQEDIIRNIARHLAQVGDSMDRSIPPGLVNGLALQLRNTSRSEEDRNRDLATALEQLLQAYPRDMEKEKTMLVLALLLAKKVASHTPSLLRDVFHTTVNFINQNLRTYVRSLARNGMD
modifications: full-length
notes: known pro-apoptotic protein; full-length recombinant Bid from R&D Systems
cytochrome c release from isolated mitochondria [1]: able to induce cytochrome c release; also recorded: capable of releasing cytochrome c under both conditions
